# Assay results as given in PubChem BioAssay (NCI).
#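 Results reflect a 48-hour exposure of cells in 96-well plates to compound at five concentrations. TGI marks complete inhibition of growth.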
# Legend:
# Assay in all cases: DTP human tumour cell line panel, 48 h
# T-47D breast = system: T-47D breast
# KM12 colon = system: KM12 colon
# NCI/ADR-RES ovarian = system: NCI/ADR-RES ovarian
# HS 578T breast = system: HS 578T breast
# MDA-MB-435 = system: MDA-MB-435
# MOLT-4 leukemia = system: MOLT-4 leukemia
# 786-0 renal = system: 786-0 renal
# M14 melanoma = system: M14 melanoma
# MALME-3M melanoma = system: MALME-3M melanoma
# UACC-62 melanoma = system: UACC-62 melanoma
# HL-60(TB) leukemia = system: HL-60(TB) leukemia
# CCRF-CEM leukemia = system: CCRF-CEM leukemia
# DU-145 prostate = system: DU-145 prostate
# SN12C renal = system: SN12C renal
# OVCAR-8 ovarian = system: OVCAR-8 ovarian
# HCC-2998 colon = system: HCC-2998 colon
# A549 NSCLC = system: A549 NSCLC
# MCF7 breast = system: MCF7 breast
# COLO 205 colon = system: COLO 205 colon
# SF-268 CNS = system: SF-268 CNS
# PC-3 prostate = system: PC-3 prostate
# SF-539 CNS = system: SF-539 CNS
# HCT-116 colon = system: HCT-116 colon
# MDA-MB-231 breast = system: MDA-MB-231 breast
# SNB-19 CNS = system: SNB-19 CNS
# SK-OV-3 ovarian = system: SK-OV-3 ovarian
# BT-549 breast = system: BT-549 breast
# SNB-75 CNS = system: SNB-75 CNS
# EKVX NSCLC = system: EKVX NSCLC
# NCI-H522 lung = system: NCI-H522 lung
# IGROV1 ovarian = system: IGROV1 ovarian
# SF-295 CNS = system: SF-295 CNS
# UO-31 renal = system: UO-31 renal
# LOX IMVI melanoma = system: LOX IMVI melanoma
# TK-10 renal = system: TK-10 renal
# SW-620 colon = system: SW-620 colon
# ACHN renal = system: ACHN renal
# NCI-H460 lung = system: NCI-H460 lung
# OVCAR-5 ovarian = system: OVCAR-5 ovarian
# NCI-H23 lung = system: NCI-H23 lung
# HT29 colon = system: HT29 colon
# HOP-62 NSCLC = system: HOP-62 NSCLC
# SK-MEL-2 melanoma = system: SK-MEL-2 melanoma
# UACC-257 melanoma = system: UACC-257 melanoma
# K-562 leukemia = system: K-562 leukemia
# OVCAR-4 ovarian = system: OVCAR-4 ovarian
# RXF 393 renal = system: RXF 393 renal
# OVCAR-3 ovarian = system: OVCAR-3 ovarian
# CAKI-1 renal = system: CAKI-1 renal
# HCT-15 colon = system: HCT-15 colon
# NCI-H226 lung = system: NCI-H226 lung
# SK-MEL-28 melanoma = system: SK-MEL-28 melanoma
# U251 CNS = system: U251 CNS
# SK-MEL-5 melanoma = system: SK-MEL-5 melanoma
# A498 renal = system: A498 renal
# RPMI-8226 leukemia = system: RPMI-8226 leukemia
# HOP-92 NSCLC = system: HOP-92 NSCLC
smiles,measurement,setting,value
Cc1cc(C(=O)CBr)c(CN2C(=O)c3ccccc3C2=O)c(=O)n1C,TGI,T-47D breast,74.4 µM
same,TGI,KM12 colon,40.1 µM
same,TGI,NCI/ADR-RES ovarian,> 100 µM
same,TGI,HS 578T breast,45.6 µM
same,TGI,MDA-MB-435,43.6 µM
same,TGI,MOLT-4 leukemia,5.57 µM
same,TGI,786-0 renal,> 100 µM
same,TGI,M14 melanoma,> 100 µM
same,TGI,MALME-3M melanoma,36.8 µM
same,TGI,UACC-62 melanoma,34.7 µM
same,TGI,HL-60(TB) leukemia,25 µM
same,TGI,CCRF-CEM leukemia,6.25 µM
same,TGI,DU-145 prostate,30.5 µM
same,TGI,SN12C renal,36 µM
same,TGI,OVCAR-8 ovarian,41.1 µM
same,TGI,HCC-2998 colon,59.7 µM
same,TGI,A549 NSCLC,44.7 µM
same,TGI,MCF7 breast,56 µM
same,TGI,COLO 205 colon,47.9 µM
same,TGI,SF-268 CNS,54.9 µM
same,TGI,PC-3 prostate,35.5 µM
same,TGI,SF-539 CNS,34.3 µM
same,TGI,HCT-116 colon,> 100 µM
same,TGI,MDA-MB-231 breast,40.2 µM
same,TGI,SNB-19 CNS,93.2 µM
same,TGI,SK-OV-3 ovarian,> 100 µM
same,TGI,BT-549 breast,32.7 µM
same,TGI,SNB-75 CNS,56.5 µM
same,TGI,EKVX NSCLC,14.5 µM
same,TGI,NCI-H522 lung,37.4 µM
same,TGI,IGROV1 ovarian,64.2 µM
same,TGI,SF-295 CNS,> 100 µM
same,TGI,UO-31 renal,41.6 µM
same,TGI,LOX IMVI melanoma,99.3 µM
same,TGI,TK-10 renal,25.3 µM
same,TGI,SW-620 colon,23 µM
same,TGI,ACHN renal,25.6 µM
same,TGI,NCI-H460 lung,76.6 µM
same,TGI,OVCAR-5 ovarian,52.6 µM
same,TGI,NCI-H23 lung,> 100 µM
same,TGI,HT29 colon,> 100 µM
same,TGI,HOP-62 NSCLC,> 100 µM
same,TGI,SK-MEL-2 melanoma,61.7 µM
same,TGI,UACC-257 melanoma,33.5 µM
same,TGI,K-562 leukemia,20.6 µM
same,TGI,OVCAR-4 ovarian,> 100 µM
same,TGI,RXF 393 renal,33.7 µM
same,TGI,OVCAR-3 ovarian,40.9 µM
same,TGI,CAKI-1 renal,47.8 µM
same,TGI,HCT-15 colon,34.9 µM
same,TGI,NCI-H226 lung,> 100 µM
same,TGI,SK-MEL-28 melanoma,42.7 µM
same,TGI,U251 CNS,38 µM
COc1cc(Nc2c(C#N)[n+]([O-])c3ccccc3[n+]2[O-])cc(OC)c1OC,TGI,T-47D breast,48.2 µM
same,TGI,KM12 colon,> 100 µM
same,TGI,NCI/ADR-RES ovarian,51 µM
same,TGI,HS 578T breast,> 100 µM
same,TGI,MDA-MB-435,> 100 µM
same,TGI,MOLT-4 leukemia,> 100 µM
same,TGI,786-0 renal,49.8 µM
same,TGI,SK-MEL-5 melanoma,54.1 µM
same,TGI,M14 melanoma,36 µM
same,TGI,MALME-3M melanoma,> 100 µM
same,TGI,HL-60(TB) leukemia,> 100 µM
same,TGI,CCRF-CEM leukemia,> 100 µM
same,TGI,DU-145 prostate,> 100 µM
same,TGI,SN12C renal,> 100 µM
same,TGI,OVCAR-8 ovarian,> 100 µM
same,TGI,HCC-2998 colon,86 µM
same,TGI,A549 NSCLC,> 100 µM
same,TGI,MCF7 breast,59 µM
same,TGI,COLO 205 colon,28.7 µM
same,TGI,SF-268 CNS,> 100 µM
same,TGI,PC-3 prostate,> 100 µM
same,TGI,SF-539 CNS,> 100 µM
same,TGI,HCT-116 colon,29.9 µM
same,TGI,A498 renal,> 100 µM
same,TGI,SNB-19 CNS,> 100 µM
same,TGI,SK-OV-3 ovarian,67.4 µM
same,TGI,BT-549 breast,> 100 µM
same,TGI,SNB-75 CNS,> 100 µM
same,TGI,RPMI-8226 leukemia,> 100 µM
same,TGI,EKVX NSCLC,> 100 µM
same,TGI,NCI-H522 lung,> 100 µM
same,TGI,SF-295 CNS,> 100 µM
same,TGI,UO-31 renal,> 100 µM
same,TGI,HOP-92 NSCLC,> 100 µM
same,TGI,LOX IMVI melanoma,> 100 µM
same,TGI,TK-10 renal,> 100 µM
same,TGI,SW-620 colon,> 100 µM
same,TGI,ACHN renal,> 100 µM
same,TGI,NCI-H460 lung,> 100 µM
same,TGI,OVCAR-5 ovarian,54.7 µM
same,TGI,NCI-H23 lung,38.2 µM
same,TGI,HT29 colon,> 100 µM
same,TGI,HOP-62 NSCLC,> 100 µM
same,TGI,SK-MEL-2 melanoma,> 100 µM
same,TGI,UACC-257 melanoma,67.2 µM
same,TGI,K-562 leukemia,> 100 µM
same,TGI,OVCAR-4 ovarian,> 100 µM
same,TGI,RXF 393 renal,> 100 µM
same,TGI,OVCAR-3 ovarian,> 100 µM
same,TGI,CAKI-1 renal,> 100 µM
same,TGI,HCT-15 colon,> 100 µM
same,TGI,SK-MEL-28 melanoma,> 100 µM
same,TGI,U251 CNS,> 100 µM
